Patent US20100016546A1, “Therapeutic Peptide-Polysaccharide Biomaterials” (priority 2005, published 2010)
Where two headings read alike, the source gives them in different places. No end group written: not given here.

Columns and labels:
[1] = system: E. coli BL21(DE3); format: cell-based; conditions: for Measured Potency: Free Peptide (LC90) / Measured Potency: Peptide/Agarose Conjugate (LC90): E. coli (BL21 (DE3)); for Measured Potency: Peptide/Agarose Conjugate (LC90): effective peptide concentration
Protocol: Overall, antimicrobial activity can be evaluated by incubating small cultures of E. coli (BL21) at 37° C. with agitation (e.g., ˜3 to ˜5 hrs) in minimal media in the presence/absence of varied amounts of peptide conjugate or free peptide. Aliquots can be collected at predetermined time points to determine the cell density. One OD600 of the solution=2×10^9 CFU/ml. Correlating changes in cell density between cultures incubated with varied amounts of conjugate and cultures grown in the absence of conjugates can provide a means of evaluating the antimicrobial potency of the varied constructs. Assays such as this one are known to be used in evaluating the potency of antimicrobial peptidomimetics and biomaterials.
In one embodiment, the antimicrobial activity of the free peptides and conjugates have been assayed against E. coli BL21(DE3) cultures. In this assay, the bacteria (at ˜1×10^6 CFU/ml) are incubated for 2 hours at 37° C. in 10 mM phosphate (e.g., Na2HPO4) buffer (pH ˜7.5) with varied concentrations of peptide or peptide-conjugate. After this time, 20 μl aliquots of each culture and serial dilutions of the culture are plated onto LB agar plates and incubated over night at 37° C. The number of colonies on these plates is then counted and the survival percentage is determined relative to a control culture. The example contained no peptide.
In another embodiment, a stock solution containing 1 mg of peptide per ml solution may be prepared. Using the stock peptide (1 mg/ml) solution, assays may be prepared (volume of ˜100 μl) at 1 μg/ml, 10 μg/ml, and 100 μg/ml of free peptide (e.g., HBD-332-45). In the control sample, 10 μl of 100 mM phosphate buffer, 80 μl of sterile water and 10 μl of cell cultures may be combined and incubated without peptide for two hours at 37° C. After two hours incubation, 20 μl aliquots of the above solutions, and 1:10, and 1:100 dilutions of each may be plated in LB-agar plates and incubated over night at 37° C.
In another embodiment, peptide conjugate (e.g., HBD-332-45-agarose) with a loading of 3.82 μg of peptide/1 μl of resin may also be assayed at effective peptide concentrations of 1 μg/ml, 10 μg/ml, 25 μg/ml, 50 μg/ml, 75 μg/ml and 100 μg/ml. For example, an effective peptide concentration of 100 μg/ml of suspension may be prepared by using 52.2 μl of a 50% suspension of 3.82 μg/μl of peptide suspension (100 μg×[1 μl/3.82 μg]=26.1 μl). Samples containing varying concentrations of peptide conjugate may be combined with 10 μl of 100 mM phosphate buffer having a pH of about 7.5, 10 μl of cell cultures (˜1×10^7 CFU/ml), and the required volume of sterile water to bring a total volume of 100 μl. This combination may be incubated at 37° C. with agitation for two hours. After incubation, 20 μl of each cell culture and 1:10 and 1:100 dilutions of each cell culture may be plated on LB-agar plates and incubated at 37° C. overnight. Similar protocols may be used to evaluate the antimicrobial activity of the HBD-336-45 peptide and corresponding conjugate. […]
The results of the antimicrobial assay using free HBD-332-45 and agarose conjugate can be seen in FIG. 17. Antimicrobial activity of free HBD-332-45 is given on the left and that of the HBD-332-45 peptide-conjugate is shown on the right. E. coli at 1×10^6 CFU/ml were incubated with varied peptide concentrations (free peptide and peptide conjugate). Serial dilutions (0.1× and 0.01×) of cell cultures in all plates are shown across the figure.

[2] = system: E. coli BL21(DE3); conditions: cited from earlier work
[3] = system: E. coli; conditions: free peptide; cited from earlier work

Substance | reduction in the number of colonies ([1]; free peptide, 1 μg/ml) [%] | reduction in the number of colonies ([1]; free peptide, 10 μg/ml) [%] | Measured Potency: Free Peptide (LC90) ([1]; free peptide) [µg/mL] | Measured Potency: Peptide/Agarose Conjugate (LC90) [1] | Reported Potency: Free Peptide (LC90) [2] [µg/mL] | Measured Potency: Peptide/Agarose Conjugate (LC50) ([1]; Escherichia coli, 2 h, pH 7.5) | bacteria killed ([1]; free peptide, 1 μg/ml, E. coli 1×10^6 CFU/ml, 2 h) [%] | microbicidal efficiency ([1]; free peptide, 10 μg/ml) [%] | microbicidal efficiency ([1]; free peptide, 100 μg/ml) [%] | antimicrobial activity against E. coli [3] [mg/mL]
RGRKSSRRKK-OH [HBD-336-45, RGRKSSRRKK] | ~67 | ~97 | 2.23 | >100 μg/m μg/ml | ~4 |  |  |  |  | 
RGRRSSRRKK-NH2 [HBD-336-45(Rev2), RGRRSSRRKK-NH2] |  |  | 0.15 | ~26 µg/mL |  |  |  |  |  | 
KSSTRGRKSSRRKK-OH [HBD-332-45, KSSTRGRKSSRRKK] |  |  | 0.20 | ~75 µg/mL | ~1 | ~10 μg/ml (LC50) | ~93 | > 99 | > 99 | 1 ± 0.1
